# Measured values: PubChem BioAssay AID1259407 (Chemical Carcinogenesis Research Information System (CCRIS), 2018)
# Activity calls are given as the source filed them. The rule behind the calls is not given here.
# System: CCRIS mutagenicity, Ames/micronucleus/aberration tests
# Experiment: CCRIS mutagenicity studies
# [1] = Test System: AMES SALMONELLA TYPHIMURIUM, Strain/Indicator: TA98, Metabolic Activation: NONE, Method: PREINCUBATION
# [2] = Test System: AMES SALMONELLA TYPHIMURIUM, Strain/Indicator: TA100, Metabolic Activation: NONE, Method: PREINCUBATION
smiles,measurement,setting,value
Nc1nc(-c2ccc([N+](=O)[O-])cc2)nc2c1ncn2-c1ccc([N+](=O)[O-])cc1,mutagenic call,"Test System: AMES SALMONELLA TYPHIMURIUM, Strain/Indicator: TA98(1,8-DNP), Metabolic Activation: NONE, Method: PREINCUBATION",active; positive
same,mutagenic call,"Test System: AMES SALMONELLA TYPHIMURIUM, Strain/Indicator: TA98(1,8-DNP), Metabolic Activation: RAT, LIVER, S-9, PCB, Method: PREINCUBATION",active; positive
same,mutagenic call,"Test System: AMES SALMONELLA TYPHIMURIUM, Strain/Indicator: TA98(NR), Metabolic Activation: NONE, Method: PREINCUBATION",active; positive
same,mutagenic call,"Test System: AMES SALMONELLA TYPHIMURIUM, Strain/Indicator: TA98(NR), Metabolic Activation: RAT, LIVER, S-9, PCB, Method: PREINCUBATION",active; positive
same,mutagenic call,[1],active; positive
same,mutagenic call,"Test System: AMES SALMONELLA TYPHIMURIUM, Strain/Indicator: TA98, Metabolic Activation: RAT, LIVER, S-9, PCB, Method: PREINCUBATION",active; positive
same,mutagenic call,"Test System: AMES SALMONELLA TYPHIMURIUM, Strain/Indicator: TA100(1,8-DNP), Metabolic Activation: NONE, Method: PREINCUBATION",active; positive
same,mutagenic call,"Test System: AMES SALMONELLA TYPHIMURIUM, Strain/Indicator: TA100(1,8-DNP), Metabolic Activation: RAT, LIVER, S-9, PCB, Method: PREINCUBATION",inactive; negative
same,mutagenic call,"Test System: AMES SALMONELLA TYPHIMURIUM, Strain/Indicator: TA100(NR), Metabolic Activation: NONE, Method: PREINCUBATION",active; positive
same,mutagenic call,"Test System: AMES SALMONELLA TYPHIMURIUM, Strain/Indicator: TA100(NR), Metabolic Activation: RAT, LIVER, S-9, PCB, Method: PREINCUBATION",inactive; negative
same,mutagenic call,[2],active; positive
same,mutagenic call,"Test System: AMES SALMONELLA TYPHIMURIUM, Strain/Indicator: TA100, Metabolic Activation: RAT, LIVER, S-9, PCB, Method: PREINCUBATION",active; positive
same,mutagenic call,"Test System: AMES SALMONELLA TYPHIMURIUM, Strain/Indicator: YG1020, Metabolic Activation: NONE, Method: PREINCUBATION",active; positive
same,mutagenic call,"Test System: AMES SALMONELLA TYPHIMURIUM, Strain/Indicator: YG1020, Metabolic Activation: RAT, LIVER, S-9, PCB, Method: PREINCUBATION",active; positive
same,mutagenic call,"Test System: AMES SALMONELLA TYPHIMURIUM, Strain/Indicator: YG1021, Metabolic Activation: NONE, Method: PREINCUBATION",active; positive
same,mutagenic call,"Test System: AMES SALMONELLA TYPHIMURIUM, Strain/Indicator: YG1021, Metabolic Activation: RAT, LIVER, S-9, PCB, Method: PREINCUBATION",active; positive
same,mutagenic call,"Test System: AMES SALMONELLA TYPHIMURIUM, Strain/Indicator: YG1024, Metabolic Activation: NONE, Method: PREINCUBATION",active; positive
same,mutagenic call,"Test System: AMES SALMONELLA TYPHIMURIUM, Strain/Indicator: YG1024, Metabolic Activation: RAT, LIVER, S-9, PCB, Method: PREINCUBATION",active; positive
same,mutagenic call,"Test System: AMES SALMONELLA TYPHIMURIUM, Strain/Indicator: YG1025, Metabolic Activation: NONE, Method: PREINCUBATION",active; positive
same,mutagenic call,"Test System: AMES SALMONELLA TYPHIMURIUM, Strain/Indicator: YG1025, Metabolic Activation: RAT, LIVER, S-9, PCB, Method: PREINCUBATION",active; positive
same,mutagenic call,"Test System: AMES SALMONELLA TYPHIMURIUM, Strain/Indicator: YG1026, Metabolic Activation: NONE, Method: PREINCUBATION",active; positive
same,mutagenic call,"Test System: AMES SALMONELLA TYPHIMURIUM, Strain/Indicator: YG1026, Metabolic Activation: RAT, LIVER, S-9, PCB, Method: PREINCUBATION",active; positive
same,mutagenic call,"Test System: AMES SALMONELLA TYPHIMURIUM, Strain/Indicator: YG1029, Metabolic Activation: NONE, Method: PREINCUBATION",active; positive
same,mutagenic call,"Test System: AMES SALMONELLA TYPHIMURIUM, Strain/Indicator: YG1029, Metabolic Activation: RAT, LIVER, S-9, PCB, Method: PREINCUBATION",active; positive
Oc1c2c(c3c(ccc4c3ccc3ccc5ccccc5c34)c1O)O2,mutagenic call,"Test System: AMES SALMONELLA TYPHIMURIUM, Strain/Indicator: TA97, Metabolic Activation: NONE, Method: PREINCUBATION",active; positive
same,mutagenic call,[1],active; positive
same,mutagenic call,[2],active; positive
same,mutagenic call,"Test System: AMES SALMONELLA TYPHIMURIUM, Strain/Indicator: TA104, Metabolic Activation: NONE, Method: PREINCUBATION",active; positive
same,mutagenic call,"Test System: CHINESE HAMSTER V-79, Strain/Indicator: V-79/6-THIOGUANINE, Metabolic Activation: NONE",active; positive
CC(O)CN (stereo not given),mutagenic call,"Test System: AMES SALMONELLA TYPHIMURIUM, Strain/Indicator: TA98, Metabolic Activation: HAMSTER, LIVER, S-9, AROCLOR 1254 (10%), Method: PREINCUBATION",inactive; negative
same,mutagenic call,[1],inactive; negative
same,mutagenic call,"Test System: AMES SALMONELLA TYPHIMURIUM, Strain/Indicator: TA98, Metabolic Activation: RAT, LIVER, S-9, AROCLOR 1254 (10%), Method: PREINCUBATION",inactive; negative
same,mutagenic call,"Test System: AMES SALMONELLA TYPHIMURIUM, Strain/Indicator: TA98, Metabolic Activation: RAT, LIVER, S-9, KC 500, Method: PREINCUBATION",inactive; negative
same,mutagenic call,"Test System: AMES SALMONELLA TYPHIMURIUM, Strain/Indicator: TA100, Metabolic Activation: HAMSTER, LIVER, S-9, AROCLOR 1254 (10%), Method: PREINCUBATION",inactive; negative
same,mutagenic call,[2],inactive; negative
same,mutagenic call,"Test System: AMES SALMONELLA TYPHIMURIUM, Strain/Indicator: TA100, Metabolic Activation: RAT, LIVER, S-9, AROCLOR 1254 (10%), Method: PREINCUBATION",inactive; negative
same,mutagenic call,"Test System: AMES SALMONELLA TYPHIMURIUM, Strain/Indicator: TA100, Metabolic Activation: RAT, LIVER, S-9, KC 500, Method: PREINCUBATION",inactive; negative
same,mutagenic call,"Test System: AMES SALMONELLA TYPHIMURIUM, Strain/Indicator: TA1535, Metabolic Activation: HAMSTER, LIVER, S-9, AROCLOR 1254 (10%), Method: PREINCUBATION",active; positive
same,mutagenic call,"Test System: AMES SALMONELLA TYPHIMURIUM, Strain/Indicator: TA1535, Metabolic Activation: NONE, Method: PREINCUBATION",inactive; negative
same,mutagenic call,"Test System: AMES SALMONELLA TYPHIMURIUM, Strain/Indicator: TA1535, Metabolic Activation: RAT, LIVER, S-9, AROCLOR 1254 (10%), Method: PREINCUBATION",active; positive
same,mutagenic call,"Test System: AMES SALMONELLA TYPHIMURIUM, Strain/Indicator: TA1535, Metabolic Activation: RAT, LIVER, S-9, KC 500, Method: PREINCUBATION",inactive; negative
same,mutagenic call,"Test System: AMES SALMONELLA TYPHIMURIUM, Strain/Indicator: TA1537, Metabolic Activation: HAMSTER, LIVER, S-9, AROCLOR 1254 (10%), Method: PREINCUBATION",inactive; negative
same,mutagenic call,"Test System: AMES SALMONELLA TYPHIMURIUM, Strain/Indicator: TA1537, Metabolic Activation: NONE, Method: PREINCUBATION",inactive; negative
same,mutagenic call,"Test System: AMES SALMONELLA TYPHIMURIUM, Strain/Indicator: TA1537, Metabolic Activation: RAT, LIVER, S-9, AROCLOR 1254 (10%), Method: PREINCUBATION",inactive; negative
same,mutagenic call,"Test System: AMES SALMONELLA TYPHIMURIUM, Strain/Indicator: TA1537, Metabolic Activation: RAT, LIVER, S-9, KC 500, Method: PREINCUBATION",inactive; negative
same,mutagenic call,"Test System: AMES SALMONELLA TYPHIMURIUM, Strain/Indicator: TA1538, Metabolic Activation: NONE, Method: PREINCUBATION",inactive; negative
same,mutagenic call,"Test System: AMES SALMONELLA TYPHIMURIUM, Strain/Indicator: TA1538, Metabolic Activation: RAT, LIVER, S-9, KC 500, Method: PREINCUBATION",inactive; negative
same,mutagenic call,"Test System: Ames Salmonella typhimurium, Strain/Indicator: TA98, Metabolic Activation: None, Method: Preincubation",inactive; negative
same,mutagenic call,"Test System: Ames Salmonella typhimurium, Strain/Indicator: TA98, Metabolic Activation: Rat, Liver, S9, Sodium phenobarbital and 5,6-benzoflavone (10%), Method: Preincubation",inactive; negative
same,mutagenic call,"Test System: Ames Salmonella typhimurium, Strain/Indicator: TA100, Metabolic Activation: None, Method: Preincubation",inactive; negative
same,mutagenic call,"Test System: Ames Salmonella typhimurium, Strain/Indicator: TA100, Metabolic Activation: Rat, Liver, S9, Sodium phenobarbital and 5,6-benzoflavone (10%), Method: Preincubation",inactive; negative
same,mutagenic call,"Test System: Ames Salmonella typhimurium, Strain/Indicator: TA1535, Metabolic Activation: None, Method: Preincubation",inactive; negative
same,mutagenic call,"Test System: Ames Salmonella typhimurium, Strain/Indicator: TA1535, Metabolic Activation: Rat, Liver, S9, Sodium phenobarbital and 5,6-benzoflavone (10%), Method: Preincubation",inactive; negative
same,mutagenic call,"Test System: Ames Salmonella typhimurium, Strain/Indicator: TA1537, Metabolic Activation: None, Method: Preincubation",inactive; negative
same,mutagenic call,"Test System: Ames Salmonella typhimurium, Strain/Indicator: TA1537, Metabolic Activation: Rat, Liver, S9, Sodium phenobarbital and 5,6-benzoflavone (10%), Method: Preincubation",inactive; negative
same,mutagenic call,"Test System: E. COLI, Strain/Indicator: WP2 UVRA, Metabolic Activation: NONE, Method: PREINCUBATION",inactive; negative
same,mutagenic call,"Test System: E. COLI, Strain/Indicator: WP2 UVRA, Metabolic Activation: RAT, LIVER, S-9, KC 500, Method: PREINCUBATION",inactive; negative
same,mutagenic call,"Test System: E. coli, Strain/Indicator: WP2uvrA/pKM101, Metabolic Activation: None, Method: Preincubation",inactive; negative
same,mutagenic call,"Test System: E. coli, Strain/Indicator: WP2uvrA/pKM101, Metabolic Activation: Rat, Liver, S9, Sodium phenobarbital and 5,6-benzoflavone (10%), Method: Preincubation",inactive; negative
CCC(=O)NCc1ccccc1,mutagenic call,"Test System: AMES SALMONELLA TYPHIMURIUM, Strain/Indicator: TA100, Metabolic Activation: NONE, Method: STANDARD PLATE",inactive; negative
